# Measurements published in patent US20130216614A1, “IMMUNOGENIC COMPOSITIONS AND METHODS FOR TREATING NUEROLOGIC DISORDERS” (Glaxosmithkline Biologicals S.A., priority 2010, published 2013).
# Test system: peripheral blood monocytes
# Test: Ex vivo uptake of fluorescent Aβ42 by peripheral blood monocytes from adjuvanted mice
# Format: in vivo, C57BL/6 mice
# Conditions: 24 hrs after i.m. injection, FIG. 21; QS21 5 μg
# Description: To begin to examine the function of the increase of monocytes in the peripheral blood, we examined the capacity of those monocytes to uptake Aβ42 in a test tube. In order to measure that phagocytic activity, we have used fluorescent HiLyteFluo Aβ42 (Anaspec Inc).
# We examined the capacity of monocytes to uptake Aβ42 in a test tube. In order to measure that phagocytic activity we have used fluorescent HiLyteFluo Aβ42 (Anaspec Inc).
# Preparation of cells: Peripheral blood was drawn from C57BL/6 mice via cardiac puncture with lithium-heparin as anticoagulant, 24-Hour after injection of the adjuvants used herein. Red blood cell lysis was performed twice on pooled blood with Ammonium Chloride-based Buffer (Sigma, Steinheim, Germany) and cells were counted with the EasyCount™ System (Immunicon). […]
# Samples were acquired on a flow cytometer (BD FACSCanto II) and data analyzed with the FACSDiva software (BD Biosciences).
# Monocytes were identified by their Side/Forward scatter properties, excluding debris and gated as CD3-/CD45R/B220-/Ly-6G-/NK1.1-(Lineage-)/CD11b+ cells. Aβ uptake was assessed by reporting the percentage and Mean Fluorescence Intensity (GeoMean) of positive HiLyte fluor488 Aβ1-42 cells among gated monocytes.
substance,measurement,value
QS21 [reference compound],ex vivo Aβ uptake by mouse peripheral blood monocytes,does not promote
